{"source": "paper PMC10916400", "about": "“Effect of the aggregated protein dye YAT2150 on Leishmania parasite viability” (Antimicrobial Agents and Chemotherapy, 2024)", "key": {"CYP2C19": {"target": "T1, CYP2C19 (Homo sapiens, UniProt P33261)", "T1 construct": "host or cells: baculovirus-infected insect cells (microsomes)", "T1 sequence (P33261 whole entry)": "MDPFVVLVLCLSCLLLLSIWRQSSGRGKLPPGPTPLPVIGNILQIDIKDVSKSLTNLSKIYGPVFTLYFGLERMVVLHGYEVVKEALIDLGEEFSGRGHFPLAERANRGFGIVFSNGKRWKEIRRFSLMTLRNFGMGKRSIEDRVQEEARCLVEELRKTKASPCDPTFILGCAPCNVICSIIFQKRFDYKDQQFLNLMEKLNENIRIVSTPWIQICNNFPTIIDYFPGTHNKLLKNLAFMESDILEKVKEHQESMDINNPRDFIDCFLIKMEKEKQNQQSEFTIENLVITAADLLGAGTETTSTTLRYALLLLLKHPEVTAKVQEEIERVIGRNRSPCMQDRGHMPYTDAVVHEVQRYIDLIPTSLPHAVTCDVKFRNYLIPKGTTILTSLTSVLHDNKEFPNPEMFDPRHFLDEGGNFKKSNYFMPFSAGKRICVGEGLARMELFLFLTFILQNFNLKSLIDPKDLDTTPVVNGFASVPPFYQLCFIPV", "assay": "Cytochrome inhibition activity assay", "format": "biochemical", "conditions": "human recombinant enzyme, 37°C", "description": "(§1) To screen the inhibition potential of the compounds using recombinant human cytochrome P450 enzymes (CYP1A2, CYP2C9, CYP2C19, and CYP2D6) and probe substrates with fluorescent detection, incubations were conducted in a 200-µL volume in 96-well microtiter plates (Costar #3915; Corning Inc.). Addition of cofactor-buffer mixture (0.2 M KH2PO4 buffer, 1.3 mM NADP, 3.3 mM MgCl2, 3.3 mM glucose-6-phosphate, and 0.4 U/mL glucose-6-phosphate dehydrogenase), previously diluted control Supersomes (insect cell control for Supersomes enzymes, baculovirus-insect cell-expressed; Corning Inc.), standard inhibitors (furafylline, tranylcypromine, sulfaphenazole, and quinidine), and test compounds was carried out by a Zephyr liquid handling station (Caliper Life Sciences, Hopkinton, MA, US). The plate was then pre-incubated at 37°C for 5 min, and the reaction was initiated by the addition of pre-warmed enzyme/substrate mix, which contained buffer (KH2PO4), cDNA-expressed P450 in insect cell microsomes, substrate (3-cyano-7-ethoxycoumarin for CYP1A2 and CYP2C19, 7-methoxy-4-(trifluoromethyl)coumarin for CYP2C9, and 3-[2-(N,N-diethyl-N-methylammonium)ethyl]-7-methoxy-4-methylcoumarin for CYP2D6) to obtain the final assay concentrations in a reaction volume of 200 µL. Reactions were terminated after a specific time for each cytochrome by the addition of stop solution (ACN:0.5 M tris-HCl, 80:20 vol/vol). Fluorescence in each well was measured using a fluorescence plate reader (EnVision 2104 multilabel plate reader; PerkinElmer, Waltham, MA, US), and percentage of inhibition was calculated."}, "CYP1A2": {"target": "T2, CYP1A2 (Homo sapiens, UniProt P05177)", "T2 construct": "host or cells: baculovirus-infected insect cells (microsomes)", "T2 sequence (P05177 1-516)": "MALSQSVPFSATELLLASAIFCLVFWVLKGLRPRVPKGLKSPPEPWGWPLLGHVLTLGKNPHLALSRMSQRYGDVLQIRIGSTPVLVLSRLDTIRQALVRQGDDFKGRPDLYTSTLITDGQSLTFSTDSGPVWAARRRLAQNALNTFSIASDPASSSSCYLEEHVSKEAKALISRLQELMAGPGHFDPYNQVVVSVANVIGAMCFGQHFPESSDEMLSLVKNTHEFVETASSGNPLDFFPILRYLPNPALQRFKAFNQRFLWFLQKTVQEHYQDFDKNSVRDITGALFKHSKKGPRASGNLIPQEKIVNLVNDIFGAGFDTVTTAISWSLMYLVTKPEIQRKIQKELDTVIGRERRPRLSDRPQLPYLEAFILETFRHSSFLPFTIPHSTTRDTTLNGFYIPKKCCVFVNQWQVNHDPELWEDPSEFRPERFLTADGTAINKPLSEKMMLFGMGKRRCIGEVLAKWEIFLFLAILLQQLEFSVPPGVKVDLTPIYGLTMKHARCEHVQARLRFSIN", "assay": "Cytochrome inhibition activity assay", "format": "biochemical", "conditions": "probe 3-cyano-7-ethoxycoumarin, human recombinant enzyme, 37°C", "description": "as §1"}, "CYP2C9": {"target": "T3, CYP2C9 (Homo sapiens, UniProt P11712)", "T3 construct": "host or cells: baculovirus-infected insect cells (microsomes)", "T3 sequence (P11712 whole entry)": "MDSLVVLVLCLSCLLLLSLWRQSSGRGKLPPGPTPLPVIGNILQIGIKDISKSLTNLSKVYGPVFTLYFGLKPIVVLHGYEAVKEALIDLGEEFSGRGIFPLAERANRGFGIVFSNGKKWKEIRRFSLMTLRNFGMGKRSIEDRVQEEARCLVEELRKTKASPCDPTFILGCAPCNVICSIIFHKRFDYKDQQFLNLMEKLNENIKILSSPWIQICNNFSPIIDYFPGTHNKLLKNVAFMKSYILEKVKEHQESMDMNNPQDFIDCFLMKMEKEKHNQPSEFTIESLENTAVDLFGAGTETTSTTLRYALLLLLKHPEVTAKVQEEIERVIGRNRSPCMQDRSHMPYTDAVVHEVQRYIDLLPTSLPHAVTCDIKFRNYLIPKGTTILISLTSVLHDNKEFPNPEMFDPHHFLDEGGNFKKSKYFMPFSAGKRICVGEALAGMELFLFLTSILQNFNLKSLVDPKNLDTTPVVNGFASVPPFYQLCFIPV", "assay": "Cytochrome inhibition activity assay", "format": "biochemical", "conditions": "probe 7-methoxy-4-(trifluoromethyl)coumarin, human recombinant enzyme, 37°C", "description": "as §1"}, "CYP2D6": {"target": "T4, CYP2D6 (Homo sapiens, UniProt P10635)", "T4 construct": "host or cells: baculovirus-infected insect cells (microsomes)", "T4 sequence (P10635 whole entry)": "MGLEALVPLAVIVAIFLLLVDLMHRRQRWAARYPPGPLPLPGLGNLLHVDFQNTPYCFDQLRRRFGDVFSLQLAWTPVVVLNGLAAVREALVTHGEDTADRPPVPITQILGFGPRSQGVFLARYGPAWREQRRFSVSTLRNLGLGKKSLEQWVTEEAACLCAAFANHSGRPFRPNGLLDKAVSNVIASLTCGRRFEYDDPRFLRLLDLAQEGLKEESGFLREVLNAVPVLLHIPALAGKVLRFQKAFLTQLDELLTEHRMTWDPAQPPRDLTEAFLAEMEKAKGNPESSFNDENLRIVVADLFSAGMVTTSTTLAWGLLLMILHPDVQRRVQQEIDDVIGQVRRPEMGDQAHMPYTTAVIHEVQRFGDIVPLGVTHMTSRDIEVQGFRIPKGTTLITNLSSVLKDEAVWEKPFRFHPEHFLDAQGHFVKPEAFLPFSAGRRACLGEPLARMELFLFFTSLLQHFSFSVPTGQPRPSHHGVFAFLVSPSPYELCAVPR", "assay": "Cytochrome inhibition activity assay", "format": "biochemical", "conditions": "human recombinant enzyme, 37°C", "description": "as §1"}, "P. falciparum": {"tested_on": "P. falciparum", "set-up": "method as in PMID 36271358", "conditions": "read-out: IC50 in in vitro P. falciparum cultures; cited from earlier work"}}}
{"smiles": "CCN(CC)c1ccc(/C=C/c2cc[n+](CCCCCCCCCC[n+]3ccc(/C=C/c4ccc(N(CC)CC)cc4)c(C)c3)cc2C)cc1", "note": "[YAT2150]", "values": [{"measurement": "IC50", "setting": "CYP2C19", "value": 1100, "unit": "nM"}, {"measurement": "inhibition at 10 µM", "setting": "CYP1A2", "value": "~50", "unit": "%"}, {"measurement": "inhibition at 10 µM", "setting": "CYP2C9", "value": "~50", "unit": "%"}, {"measurement": "IC50", "setting": "CYP2D6", "value": 1700, "unit": "nM"}, {"measurement": "IC50", "setting": "P. falciparum", "value": "~90", "unit": "nM"}]}
